Source: US12691046B2, “Ester compositions” (Evonik Operations GmbH, priority 2021, dated 2026)

Assays:
[1] = Pigment/powder dispersion: increase in viscosity of the oil (Brookfield); format: physicochemical; conditions: for Increase in viscosity: 60% emollient + 40% pigment/powder mixture (Table 2), Brookfield, spindle 5, 50 rpm at 20° C.; for dispersibility of the pigment/powder mixture in the oil: judged from the increase in viscosity
Source text: Alkyl carboxylates according to the invention can help in the wetting of hydrophobized pigments and accordingly can be widely used in coloured cosmetics. The pigment wetting properties of cosmetic oils can be determined by measuring the viscosity of the pure oil, in comparison with the viscosity of the oil after dispersing a defined amount of pigments. The smaller the increase in viscosity thus determined, the better the property of an oil in wetting pigments on the surface and accordingly in dispersing.
The viscosities of the oils before addition of the pigment/powder mixture are determined using a Brookfield viscometer, spindle 5, 50 rpm at 20° C. After dispersion of the pigment/powder mixture, the viscosity is again determined in an identical way.

[2] = Mixtures of pure pigments with cosmetic oil: increase in viscosity (rheometer); format: physicochemical; conditions: for dispersibility of pure pigments in the oil: judged from the increase in viscosity; for Increase in viscosity, Carbon Black (CI77266, UniPure Black LC 902, Sensient): pigment:oil 15:85 w/w; for Increase in viscosity, Carbon Black (CI77266, UniPure Black LC 902, Sensient) / Increase in viscosity, (Yellow) Iron Oxide (CI 77492); Dimethicone (BYO-DS4, KOBO) / Increase in viscosity, (Black) Iron Oxides (CI 77499); Dimethicone (BYO-DS3, KOBO) / Increase in viscosity, Titanium Dioxide (CI 77891); Dimethicone (DHL-TRI-77891, US Cosmetics) / Increase in viscosity, (Red) Iron Oxides (CI 77491); Dimethicone (BYO-DS3, KOBO): rheometer MCR 302, 20° C., 1/100 sec, triplicate averaged; for Increase in viscosity, (Yellow) Iron Oxide (CI 77492); Dimethicone (BYO-DS4, KOBO): pigment:oil 40:60 w/w; for Increase in viscosity, (Black) Iron Oxides (CI 77499); Dimethicone (BYO-DS3, KOBO) / Increase in viscosity, Titanium Dioxide (CI 77891); Dimethicone (DHL-TRI-77891, US Cosmetics): pigment:oil 60:40 w/w; for Increase in viscosity, (Red) Iron Oxides (CI 77491); Dimethicone (BYO-DS3, KOBO): pigment:oil 65:35 w/w
Description: Here too, the pigment wetting properties of cosmetic oils can be determined by measuring the viscosity of the pure oil, in comparison with the viscosity of the oil after dispersing a defined amount of the pure pigment. The smaller the increase in viscosity thus determined, the better the property of an oil in wetting pigments on the surface and accordingly in dispersing.
The mixture is then stirred for 3 min at 3,500 rpm's and placed onto rheometer for measurement (Anton Paar Modular Compact Rheometer model MCR 302, 20° C., 1/100 sec). The viscosities of the neat cosmetics oils are also measured. Pigment mixtures and neat cosmetic oils are run in triplicate and the results averaged.
The increase in viscosity comparing the neat cosmetic oil and the pigment/cosmetic oil mixture is represented below (given in mPa·s): […]

SMILES	Increase in viscosity [1]	dispersibility of the pigment/powder mixture in the oil [1]	dispersibility of pure pigments in the oil [2]	Increase in viscosity, Carbon Black (CI77266, UniPure Black LC 902, Sensient) [2]	Increase in viscosity, (Yellow) Iron Oxide (CI 77492); Dimethicone (BYO-DS4, KOBO) [2]	Increase in viscosity, (Black) Iron Oxides (CI 77499); Dimethicone (BYO-DS3, KOBO) [2]	Increase in viscosity, Titanium Dioxide (CI 77891); Dimethicone (DHL-TRI-77891, US Cosmetics) [2]	Increase in viscosity, (Red) Iron Oxides (CI 77491); Dimethicone (BYO-DS3, KOBO) [2]
CCCCCCCCCCCCCCCCOC(=O)C(CC)CCCC (stereo not shown) [Cetyl Ethylhexanoate]	2520 mPa · s	improved	improved	625 mPa·s	2357 mPa·s	8718 mPa·s	807 mPa·s	5393 mPa·s
CCCCCCCCCCCC(=O)OCCC(C)C [Dermofeel ® sensolv, Isoamyl Laurate]	1820 mPa · s	improved	improved	223 mPa·s	195 mPa·s	458 mPa·s	121 mPa·s	2238 mPa·s
